In US20240301409A1, “Chemically Modified Small Activating RNA” (RACTIGEN THERAPEUTICS, priority 2021, published 2024):

Tested on: J82 cells
Experiment: Cellular proliferation assay (CCK8) in J82 cells, combined with Mitomycin C or valrubicin
Assay type: cell-based, human
Details: for Combination Index (CI) / relative proliferation proportion of cells: J82 cells
Procedure: J82 cells were transfected with RAG1-40-31 at concentrations of 0.1, 0.5, 1, 5, 10, 25 and 50 nM for 24 hours, and then Mitomycin C at concentrations of 1, 10, 100, 1000 and 10000 nM was added. The combined treatment was carried out with concentrations in pairs. After treatment, the proliferation of cells was detected using CCK8 kit. FIGS. 14A-14B show the relative proliferation proportion of J82 cells after the combined treatment with chemically modified saRNA RAG1-40-31 and valrubicin. […] Control and DMSO are the blank transfection control and the solvent for dilution control, respectively.
J82 cells were transfected with RAG1-40-31 at concentrations of 0.1, 0.5, 1, 5, 10, 25 and 50 nM for 24 hours, and then valrubicin at concentrations of 1, 10, 100, 1000 and 10000 nM was added. The combined treatment was carried out with concentrations in pairs. After treatment, the cellular proliferation was detected by CCK8 kit. FIGS. 15A-15B show the relative proliferation proportion of T24 cells after the combined treatment with chemically modified saRNA RAG1-40-31 and Mitomycin C. […] Control and DMSO are the blank transfection control and the solvent for dilution control, respectively.
Human bladder cancer cells Ku-7-LG (ATCC), J82 (ATCC) and T24 (ATCC) were cultured in McCoy medium (Gibco) comprising 10% calf serum (Sigma-Aldrich) and 1% penicillin/Streptomycin (Gibco). Cells were cultured at 37° C. under 5% CO2. Ku-7-LG, J82 and T24 cells were plated into 12-well plates at 10×10^4 cells per well, transfected with the small RNA at a concentration of 10 nM (unless otherwise specified) for three days, using RNAiMax (Invitrogen, Carlsbad, CA) according to the manufacturer's instructions. Two replicate wells were set for each treatment.
Cells were plated in a 96-well plate at 2˜4×10^3 cells/well, cultured overnight, and transfected with the oligonucleotide duplexes. Three days after transfection, CCK8 (Dojindo) was used to detect cellular proliferation following manufacturer's instructions. The experimental steps are briefly described as follows: 10 μL of CCK8 solution was added to each well, incubated at 37° C. for 1 hour, and then the absorbance at 450 nm was measured using a microplate reader.
In this example, chemically modified saRNA RAG1-40-31 was used in combination with clinical chemical agents to evaluate the suppressing effect of the combined agents on cancer cells.

[1] = RAG1-40-31 0.1 nM + MMC 1000 nM

RAG1-40-31: saRNA duplex: sense fCfCAACUCAUUCUCCAAG*U*C (SEQ ID NO 16); antisense U*A*fCfUfUGGAGAAfUGAGfUfUGG*fC*A (SEQ ID NO 12) (sense CCAACUCAUUCUCCAAGUC; antisense UACUUGGAGAAUGAGUUGGCA; 2'-F and phosphorothioate modifications; modified_base (1)..(2) (1,2)=2′-fluoro; modified_base (17)..(19) (17,18,19)=phosphorothioate (PS) backbone modification; modified_base (2)..(21) (2,3,19,20,21)=phosphorothioate (PS) backbone modification; modified_base (3)..(20) (3,4,5,12,16,17,20)=2′-fluoro)
Combination Index (CI) (RAG1-40-31 0.1 nM + MMC 1 nM): 0.08
Combination Index (CI) (RAG1-40-31 0.1 nM + MMC 10 nM): 0.42
Combination Index (CI) (RAG1-40-31 0.1 nM + MMC 100 nM): 0.47
Combination Index (CI) [1]: 0.73
Combination Index (CI) (RAG1-40-31 0.1 nM + MMC 10000 nM): 0.50
Combination Index (CI) (RAG1-40-31 0.1 nM + valrubicin 1 nM): 0.10
Combination Index (CI) (RAG1-40-31 0.1 nM + valrubicin 10 nM): 0.42
Combination Index (CI) (RAG1-40-31 0.1 nM + valrubicin 100 nM): 0.85
Combination Index (CI) (RAG1-40-31 0.1 nM + valrubicin 1000 nM): 0.18
Combination Index (CI) (RAG1-40-31 0.1 nM + valrubicin 10000 nM): 0.19
Combination Index (CI) (RAG1-40-31 0.5 nM + MMC 1 nM): 0.17
Combination Index (CI) (RAG1-40-31 0.5 nM + MMC 10 nM): 0.47
Combination Index (CI) (RAG1-40-31 0.5 nM + MMC 100 nM): 0.54
Combination Index (CI) (RAG1-40-31 0.5 nM + MMC 1000 nM): 0.75
Combination Index (CI) (RAG1-40-31 0.5 nM + MMC 10000 nM): 0.25
Combination Index (CI) (RAG1-40-31 0.5 nM + valrubicin 1 nM): 0.18
Combination Index (CI) (RAG1-40-31 0.5 nM + valrubicin 10 nM): 0.08
Combination Index (CI) (RAG1-40-31 0.5 nM + valrubicin 100 nM): 1.31
Combination Index (CI) (RAG1-40-31 0.5 nM + valrubicin 1000 nM): 0.14
Combination Index (CI) (RAG1-40-31 0.5 nM + valrubicin 10000 nM): 0.11
Combination Index (CI) (RAG1-40-31 1 nM + MMC 1 nM): 0.13
Combination Index (CI) (RAG1-40-31 1 nM + MMC 10 nM): 0.58
Combination Index (CI) (RAG1-40-31 1 nM + MMC 100 nM): 0.52
Combination Index (CI) (RAG1-40-31 1 nM + MMC 1000 nM): 0.76
Combination Index (CI) (RAG1-40-31 1 nM + MMC 10000 nM): 0.46
Combination Index (CI) (RAG1-40-31 1 nM + valrubicin 1 nM): 0.26
Combination Index (CI) (RAG1-40-31 1 nM + valrubicin 10 nM): 0.12
Combination Index (CI) (RAG1-40-31 1 nM + valrubicin 100 nM): 0.30
Combination Index (CI) (RAG1-40-31 1 nM + valrubicin 1000 nM): 0.12
Combination Index (CI) (RAG1-40-31 1 nM + valrubicin 10000 nM): 0.11
Combination Index (CI) (RAG1-40-31 5 nM + MMC 1 nM): 0.29
Combination Index (CI) (RAG1-40-31 5 nM + MMC 10 nM): 0.32
Combination Index (CI) (RAG1-40-31 5 nM + MMC 100 nM): 0.40
Combination Index (CI) (RAG1-40-31 5 nM + MMC 1000 nM): 0.43
Combination Index (CI) (RAG1-40-31 5 nM + MMC 10000 nM): 0.41
Combination Index (CI) (RAG1-40-31 5 nM + valrubicin 1 nM): 0.12
Combination Index (CI) (RAG1-40-31 5 nM + valrubicin 10 nM): 0.32
Combination Index (CI) (RAG1-40-31 5 nM + valrubicin 100 nM): 0.61
Combination Index (CI) (RAG1-40-31 5 nM + valrubicin 1000 nM): 0.13
Combination Index (CI) (RAG1-40-31 5 nM + valrubicin 10000 nM): 0.06
Combination Index (CI) (RAG1-40-31 10 nM + MMC 1 nM): 0.40
Combination Index (CI) (RAG1-40-31 10 nM + MMC 10 nM): 0.47
Combination Index (CI) (RAG1-40-31 10 nM + MMC 100 nM): 0.37
Combination Index (CI) (RAG1-40-31 10 nM + MMC 1000 nM): 0.41
Combination Index (CI) (RAG1-40-31 10 nM + MMC 10000 nM): 0.29
Combination Index (CI) (RAG1-40-31 10 nM + valrubicin 1 nM): 0.14
Combination Index (CI) (RAG1-40-31 10 nM + valrubicin 10 nM): 0.22
Combination Index (CI) (RAG1-40-31 10 nM + valrubicin 100 nM): 0.37
Combination Index (CI) (RAG1-40-31 10 nM + valrubicin 1000 nM): 0.11
Combination Index (CI) (RAG1-40-31 10 nM + valrubicin 10000 nM): 0.04
Combination Index (CI) (RAG1-40-31 25 nM + MMC 1 nM): 0.32
Combination Index (CI) (RAG1-40-31 25 nM + MMC 10 nM): 0.50
Combination Index (CI) (RAG1-40-31 25 nM + MMC 100 nM): 0.37
Combination Index (CI) (RAG1-40-31 25 nM + MMC 1000 nM): 0.28
Combination Index (CI) (RAG1-40-31 25 nM + MMC 10000 nM): 0.09
Combination Index (CI) (RAG1-40-31 25 nM + valrubicin 1 nM): 0.14
Combination Index (CI) (RAG1-40-31 25 nM + valrubicin 10 nM): 0.10
Combination Index (CI) (RAG1-40-31 25 nM + valrubicin 100 nM): 0.16
Combination Index (CI) (RAG1-40-31 25 nM + valrubicin 1000 nM): 0.05
Combination Index (CI) (RAG1-40-31 25 nM + valrubicin 10000 nM): 0.02
relative proliferation proportion of cells (RAG1-40-31 25 nM and 50 nM + Mitomycin C 1, 10, 100, 1000 and 10000 nM): lower than 26%
relative proliferation proportion of cells (RAG1-40-31 25 nM and 50 nM + Valrubicin 1, 10, 100, 1000 and 10000 nM): lower than 30%
Combination Index (CI) (RAG1-40-31 50 nM + MMC 1 nM): 0.96
Combination Index (CI) (RAG1-40-31 50 nM + MMC 10 nM): 0.98
Combination Index (CI) (RAG1-40-31 50 nM + MMC 100 nM): 0.44
Combination Index (CI) (RAG1-40-31 50 nM + MMC 1000 nM): 0.19
Combination Index (CI) (RAG1-40-31 50 nM + MMC 10000 nM): 0.15
Combination Index (CI) (RAG1-40-31 50 nM + valrubicin 1 nM): 0.11
Combination Index (CI) (RAG1-40-31 50 nM + valrubicin 10 nM): 0.14
Combination Index (CI) (RAG1-40-31 50 nM + valrubicin 100 nM): 0.22
Combination Index (CI) (RAG1-40-31 50 nM + valrubicin 1000 nM): 0.09
Combination Index (CI) (RAG1-40-31 50 nM + valrubicin 10000 nM): 0.02
relative proliferation proportion of cells (RAG1-40-31 0.1-50 nM + Mitomycin C 100, 1000 and 10000 nM): lower than 35%
relative proliferation proportion of cells (RAG1-40-31 0.1-50 nM + Valrubicin 1000 nM and 10000 nM): lower than 30%
relative proliferation proportion of cells (RAG1-40-31 5-50 nM + Mitomycin C 1, 10, 100, 1000 and 10000 nM): lower than 43%
effect of combined use with Mitomycin C or valrubicin, in words (J82 tumor cells): synergistic effect
Relative proliferation proportion of J82 cells (RAG1-40-31 0.1 nM + MMC 1 nM): 74.3%
Relative proliferation proportion of J82 cells (RAG1-40-31 0.1 nM + MMC 10 nM): 71.5%
Relative proliferation proportion of J82 cells (RAG1-40-31 0.1 nM + MMC 100 nM): 32.9%
Relative proliferation proportion of J82 cells [1]: 10.8%
